# Measurements published in the supplement of paper PMC10307832.
# How the values were obtained:
# Assay in all cases: relative viability (nuclei count vs DMSO), 5 days (fraction); higher = more cells survive
# XMD14-99 + OSI-027 = compound: CN1CCN(CC1)C2=CC(=C(C=C2)NC3=NC(=C(S3)C(=O)C4=C(C=CC=C4Cl)Cl)N)OC [XMD14-99] + COc1cccc2cc(-c3nc([C@H]4CC[C@H](C(=O)O)CC4)n4ncnc(N)c34)[nH]c12 [OSI-027] (partner 0.5 µM)
# Outline: (§1)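 Cells from lung cancer lines were seeded into 1536-well plates and, one day later, dosed by pin tool. Treatments were either a single drug or a fixed dose of an anchor drug with five library-drug doses (not always all listed) in √10 steps. After 5 days, nuclei were stained in a one-step fixation (final 0.05% Triton X-100, 1% formaldehyde, 1 ug/ml Hoechst) and counted on 4× images, and relative viability is the treated-to-vehicle nuclei ratio, as the median of duplicate plates.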
# XMD14-99 + Linsitinib = compound: CN1CCN(CC1)C2=CC(=C(C=C2)NC3=NC(=C(S3)C(=O)C4=C(C=CC=C4Cl)Cl)N)OC [XMD14-99] + C[C@]1(O)C[C@@H](c2nc(-c3ccc4ccc(-c5ccccc5)nc4c3)c3c(N)nccn32)C1 [Linsitinib] (partner 1 µM)
# Outline: as §1
# XMD14-99 + Phenformin = compound: CN1CCN(CC1)C2=CC(=C(C=C2)NC3=NC(=C(S3)C(=O)C4=C(C=CC=C4Cl)Cl)N)OC [XMD14-99] + N=C(N)NC(=N)NCCc1ccccc1 [Phenformin] (partner 250 µM)
# Outline: as §1
# AZD1208 + Luminespib = compound: N[C@@H]1CCCN(c2c(/C=C3\SC(=O)NC3=O)cccc2-c2ccccc2)C1 [AZD1208] + CCNC(=O)c1noc(-c2cc(C(C)C)c(O)cc2O)c1-c1ccc(CN2CCOCC2)cc1 [Luminespib] (partner 0.01 µM)
# Outline: as §1
Cell Line,relative viability (XMD14-99 + OSI-027; first compound 0.08 µM),relative viability (XMD14-99 + OSI-027; first compound 0.8 µM),relative viability (XMD14-99 + OSI-027; first compound 2.53 µM),relative viability (XMD14-99 + OSI-027; first compound 8 µM),relative viability (XMD14-99 + Linsitinib; first compound 0.08 µM),relative viability (XMD14-99 + Linsitinib; first compound 0.8 µM),relative viability (XMD14-99 + Linsitinib; first compound 2.53 µM),relative viability (XMD14-99 + Linsitinib; first compound 8 µM),relative viability (XMD14-99 + Phenformin; first compound 0.08 µM),relative viability (XMD14-99 + Phenformin; first compound 0.8 µM),relative viability (XMD14-99 + Phenformin; first compound 2.53 µM),relative viability (XMD14-99 + Phenformin; first compound 8 µM),relative viability (AZD1208 + Luminespib; first compound 0.08 µM),relative viability (AZD1208 + Luminespib; first compound 0.253 µM),relative viability (AZD1208 + Luminespib; first compound 0.8 µM),relative viability (AZD1208 + Luminespib; first compound 2.53 µM),relative viability (AZD1208 + Luminespib; first compound 8 µM)
NCI-H460,0.626,0.626,0.646,0.269,0.685,0.77,0.61,0.331,0.517,0.498,0.431,0.325,0.0309,0.0217,0.0281,0.0375,0.0205
LOU-NH91,0.744,0.7,0.73,0.63,0.963,1,0.924,0.865,0.716,0.777,0.573,0.556,0.34,0.342,0.365,0.313,0.322
NCI-H322M,0.56,0.581,0.492,0.372,0.903,0.959,0.951,0.845,0.787,0.834,0.699,0.627,0.784,0.767,0.794,0.803,0.88
NCI-H520,0.251,0.262,0.231,0.206,1.08,0.972,1,0.657,0.603,0.526,0.498,0.361,0.253,0.246,0.212,0.201,0.207
NCI-H661,0.777,0.673,0.498,0.416,0.5,0.58,0.502,0.441,0.292,0.272,0.263,0.296,0.977,1.02,0.955,0.939,0.998
NCI-H727,0.617,0.493,0.584,0.383,0.303,0.284,0.247,0.297,0.423,0.43,0.419,0.374,0.362,0.384,0.431,0.42,0.458
NCI-H1793,0.269,0.26,0.232,0.199,0.9,0.979,0.703,0.738,0.367,0.337,0.249,0.288,0.181,0.17,0.14,0.176,0.152
NCI-H1734,0.556,0.524,0.55,0.437,0.854,0.897,0.823,0.745,0.348,0.376,0.368,0.381,0.18,0.197,0.187,0.159,0.168
LXF-289,0.839,0.84,0.819,0.616,0.894,0.926,0.939,0.798,0.52,0.502,0.487,0.457,0.601,0.584,0.659,0.607,0.527
H3255,0.548,0.57,0.535,0.487,0.999,0.871,0.765,0.694,0.384,0.398,0.337,0.335,0.872,0.982,0.698,0.901,0.842
201T,0.748,0.729,0.828,0.494,1.05,1.02,0.995,1,0.449,0.441,0.422,0.41,1.07,1.02,0.961,1.12,0.98
NCI-H2228,0.687,0.583,0.505,0.199,0.702,0.524,0.476,0.221,0.382,0.344,0.168,0.152,0.162,0.112,0.125,0.136,0.163
HOP-62,0.873,0.877,0.772,0.662,0.965,0.894,0.794,0.894,0.707,0.648,0.643,0.547,0.918,1.07,0.904,0.916,0.956
CAL-12T,0.492,0.68,0.747,0.377,0.796,0.826,0.709,0.641,0.597,0.567,0.525,0.412,0.363,0.527,0.185,0.434,0.258
NCI-H596,0.675,0.901,0.609,0.643,1.06,1.05,1.08,1.04,0.799,0.883,0.733,0.784,0.912,1.19,0.999,1.05,0.79
NCI-H1755,0.709,0.712,0.668,0.517,1.02,0.989,1.02,0.736,0.587,0.57,0.578,0.523,0.357,0.282,0.494,0.565,0.269
NCI-H2085,0.725,0.815,0.624,0.42,0.872,0.86,0.784,0.667,0.668,0.68,0.681,0.572,0.439,0.388,0.427,0.461,0.381
NCI-H2023,0.42,0.427,0.299,0.209,0.662,0.551,0.63,0.514,0.378,0.422,0.338,0.245,0.677,0.75,0.588,0.597,0.416
